Measurements: patent US20100099756A1, “USES OF INCENSOLE, INCENSOLE ACETATE AND DERIVATIVES THEREOF” (YISSUM RESEARCH DEVELOPMENT COMPANY OF THE HEBREW …, priority 2006, published 2010)

How the values were obtained:
TRPV3 = molecular target: T1, TRPV3 (Mus musculus, UniProt Q8K424); assay: Calcium imaging of TRPV3+/+ and TRPV3−/− primary keratinocytes; format: cell-based; set-up: endogenous in cells; host or cells: primary keratinocytes from TRPV3+/+ mouse pups (day 1-4); TRPV3-/- cells as control; conditions: IA 500 μM
T1 sequence (Q8K424 1-791): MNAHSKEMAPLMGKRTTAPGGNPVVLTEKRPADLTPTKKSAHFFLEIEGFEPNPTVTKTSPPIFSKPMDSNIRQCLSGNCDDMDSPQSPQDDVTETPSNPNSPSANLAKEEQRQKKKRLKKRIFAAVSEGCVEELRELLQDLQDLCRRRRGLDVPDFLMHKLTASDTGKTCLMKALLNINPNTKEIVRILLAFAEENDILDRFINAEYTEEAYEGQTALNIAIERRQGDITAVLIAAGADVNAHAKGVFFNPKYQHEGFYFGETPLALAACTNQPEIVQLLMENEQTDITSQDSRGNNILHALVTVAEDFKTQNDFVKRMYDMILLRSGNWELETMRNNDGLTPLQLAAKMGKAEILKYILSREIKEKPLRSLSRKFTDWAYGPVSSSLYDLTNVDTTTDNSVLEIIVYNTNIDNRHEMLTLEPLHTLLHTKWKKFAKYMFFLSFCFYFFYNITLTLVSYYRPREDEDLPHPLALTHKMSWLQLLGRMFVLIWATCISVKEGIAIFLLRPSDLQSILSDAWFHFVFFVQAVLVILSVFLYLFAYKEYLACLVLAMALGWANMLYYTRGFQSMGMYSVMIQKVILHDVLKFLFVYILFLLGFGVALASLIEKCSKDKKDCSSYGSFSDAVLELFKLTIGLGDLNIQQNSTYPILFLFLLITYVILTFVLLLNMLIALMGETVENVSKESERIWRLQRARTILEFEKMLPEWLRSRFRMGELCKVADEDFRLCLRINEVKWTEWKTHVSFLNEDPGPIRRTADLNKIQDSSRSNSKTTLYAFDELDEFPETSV
Excerpt: HEK293 cells were transiently transfected with a rat TRPV2 plasmid using lipofectamine reagent (Invitrogen, Carlsbad, Calif.) according to manufacturer's protocol. They were then maintained in Dulbecco's modified Eagle Medium/10% fetal calf serum supplemented with Penicillin, Streptomycin, and L-glutamine. Primary keratinocytes from TRPV3-deficient and TRPV3+/+ mouse pups (day 1-4) were harvested and cultured as described previously [Chung, M. K., Lee, H., Mizuno, A., Suzuki, M. & Caterina, M. J. TRPV3 and TRPV4 mediate warmth-evoked currents in primary mouse keratinocytes. J. Biol. Chem. 279, 21569-21575 (2004)].
Calcium imaging of TRPV3^+/+ and TRPV3^−/− keratinocytes. Primary keratinocytes from TRPV3-deficient and WT mouse pups (day 1-4) were harvested and cultured as described [Chung, M. K., Lee, H., Mizuno, A., Suzuki, M. & Caterina, M. J. TRPV3 and TRPV4 mediate warmth-evoked currents in primary mouse keratinocytes. J. Biol. Chem. 279, 21569-21575 (2004)].
Cells were plated on glass coverslips (10^5/cm^2) and incubated for 48-60 h, then loaded with fura-2 AM (20 μM, 0.04% pleuronic acid, 32° C. for 1 h) in imaging buffer containing (in mM): 130 NaCl, 2.5 CaCl2, 0.6 MgCl2, 10 HEPES, 1.2 NaHCO3, 10 glucose, pH 7.45. Ratiometric Ca^2+ imaging was performed as previously described [O'dell, D. K., Rimmerman, N., Pickens, S. R. & Walker J. M. Fatty acyl amides of endogenous tetrahydroisoquinolines are active at the recombinant human TRPV1 receptor. Bioorg. Med. Chem. 15, 6164-6169 (2007)]. Drug was added to the bath following a period of baseline recording. Calcium measurements were made from 30 randomly selected cells per coverslip.
Data analysis of calcium imaging data. Analysis of calcium imaging data was done using a non-linear regression curve fit (Graphpad 4 Prism, San Diego, Calif.). t tests and one way ANOVA were calculated using SPSS (Chicago, Ill.). […] Averaged drug responses over 30 randomly selected cells per coverslip were analyzed with two-tailed unpaired t tests.

cancer cells = assay: Cell proliferation test (MTT); format: cell-based; conditions: three days
Protocol: In each MTT assay every concentration of the cytotoxic substance was tested in five replicates in microplate wells. Assays with every cell line were carried out in two to three repeated experiments. The inhibitory effect of various compounds was calculated as percentage inhibition in comparison with the values obtained in untreated wells to which vehicle (ethanol 0.5%) was added.
Aliquots (200 μL) of suspensions of cancer cells were dispensed into wells of 96-well tissue culture plates at densities of 0.02×10^6 cells/well. Various concentrations of IA were introduced into the wells, and their efficacy was tested three days after initiation of the cultures, using the 3-(4,5-dimethylthiazol-2-yl)-2,5-diphenyltetrazolium bromide (MTT) assay. The principle of this assay is that cells which survive following exposure to various compounds can reduce MTT to a dark -colored formazan, while dead cells are incapable of doing so. In each MTT assay every concentration of the cytotoxic substance was tested in five replicates in microplate wells. Assays with every cell line were carried out in two to three repeated experiments. The inhibitory effect of various compounds was calculated as percentage inhibition in comparison with the values obtained in untreated wells to which vehicle (ethanol 0.5%) was added.

anxiety-like behavior = assay: Elevated plus maze; format: in vivo, female Sabra mice; conditions: 50 mg/kg i.p.

## CC(=O)OC1CC/C(C)=C/CC/C(C)=C/CC2(C(C)C)CCC1(C)O2 (centres unmarked) [IA, incensole acetate]
TRPV3
  calcium influx in primary keratinocytes from TRPV3−/− mice: not from TRPV3
TRPV3; camphor 10 mM
  calcium influx in primary keratinocytes from WT mice: induced a calcium influx
Cancer cells
  proliferation of cells, other cell lines (FIG. 11B): no effect
Cancer cells; hematopoetic cells
  proliferation of cells, several cell lines (FIG. 11A): inhibited the proliferation of cells
anxiety-like behavior
  time in open arms of the elevated plus maze: potent anxiolytic-like effect
